Source: patent EP2958918B1, “DIHYDROPTERIDINONES II” (Boehringer Ingelheim International GmbH, priority 2013, dated 2014)
pIC50: −log10 of the molar value.

Experiments:
Aβ42 = Aβ42 cellular assay: inhibition of Aβ42 production in H4 neuroglioma cells stably expressing human APP695, electrochemiluminescence (Meso Scale Discovery) on supernatant; type: cell-based; conditions: 22 hours incubation, tested range 30 µM to 0.1 nM
Experimental: (§1) Cells were plated out to near confluency. The compounds to be tested were received as 10 mM stocks in 100% DMSO. A dilution series was initially generated in 100% DMSO and then diluted 200-fold in cell culture media such that the tested concentration range was 30 µM to 0.1 nM and the final DMSO concentration was 0.5%. The diluted compounds were incubated with the cells for 22 hours in an incubator at 37°C and 5% CO2. Aβ42 as well as Aβ total levels were then measured post-incubation from the supernatant of the cells. Aβ42 levels were determined using a specific electrochemiluminescence assay provided by Meso Scale Discovery (Catalog # L21CA-1) according to the manufacturer's protocol. Aβ total levels were likewise determined using a specific electrochemiluminescence assay provided by Meso Scale Discovery (Catalog # L21ZA-1) according to the manufacturer's protocol.
(§2) In order to absolutely define the described compounds as modulators of y-Secretase as opposed to simply inhibitors of γ-Secretase, measurements of not only Aβ42 but also Aβ total are performed.

Aβ total = Aβ total cellular assay: inhibition of Aβ total production in H4 neuroglioma cells stably expressing human APP695, electrochemiluminescence (Meso Scale Discovery) on supernatant; used for the ratio Aβ total IC50 / Aβ42 IC50; type: cell-based; conditions: higher ratio = more specific inhibition of Aβ42
Experimental: as §1, §2

COc1cc(Nc2ncc3c(n2)N(C)C2(CCOCC2)C(=O)N3C)ccc1-c1cnc(C)o1 [Example 1]
pIC50 (Aβ42): 6.92
Ratio Aß(total)/Aß42 (Aβ total): > 244

COc1cc(Nc2ncc3c(n2)N(C)C2(CCOCC2)C(=O)N3C)ccc1-n1cnc(C)c1 [Example 2]
pIC50 (Aβ42): 6.72
Ratio Aß(total)/Aß42 (Aβ total): 89

Cc1ncc(-c2ccc(Nc3ncc4c(n3)N(C)C3(CCOCC3)C(=O)N4C)cn2)o1 [Example 3]
pIC50 (Aβ42): 5.27
Ratio Aß(total)/Aß42 (Aβ total): >6

COc1cc(Nc2nc(C)c3c(n2)N(C)C2(CCOCC2)C(=O)N3C)ccc1-n1cnc(C)c1 [Example 4]
pIC50 (Aβ42): 6.54
Ratio Aß(total)/Aß42 (Aβ total): 101

Cc1ncc(-c2ccc(Nc3nc(C)c4c(n3)N(C)C3(CCOCC3)C(=O)N4C)cn2)o1 [Example 5]
pIC50 (Aβ42): 5.49
Ratio Aß(total)/Aß42 (Aβ total): >9

COc1cc(Nc2ncc3c(n2)N(C)C2(CCOC2)C(=O)N3C)ccc1-n1cnc(C)c1 (stereo not shown) [Example 6]
pIC50 (Aβ42): 6.66
Ratio Aß(total)/Aß42 (Aβ total): > 136

COc1cc(Nc2ncc3c(n2)N(C)C2(CCOC2)C(=O)N3C)ccc1-c1cnc(C)o1 (stereo not shown) [Example 7]
pIC50 (Aβ42): 7.02
Ratio Aß(total)/Aß42 (Aβ total): > 315

Cc1ncc(-c2ccc(Nc3ncc4c(n3)N(C)C3(CCOC3)C(=O)N4C)cn2)o1 (stereo not shown) [Example 8]
pIC50 (Aβ42): 5.52
Ratio Aß(total)/Aß42 (Aβ total): >10

COc1cc(Nc2ncc3c(n2)N(C)C2(CCOCC2)C(=O)N3)ccc1-n1cnc(C)c1 [Example 9]
pIC50 (Aβ42): 6.52
Ratio Aß(total)/Aß42 (Aβ total): > 101

COc1cc(Nc2ncc3c(n2)N(C)C2(CCOC2)C(=O)N3)ccc1-n1cnc(C)c1 (stereo not shown) [Example 10]
pIC50 (Aβ42): 6.21
Ratio Aß(total)/Aß42 (Aβ total): 46

COCCN1C(=O)C2(CCOCC2)N(C)c2nc(Nc3ccc(-n4cnc(C)c4)c(OC)c3)ncc21 [Example 11]
pIC50 (Aβ42): 6.51
Ratio Aß(total)/Aß42 (Aβ total): 26

COCCN1C(=O)C2(CCOCC2)N(C)c2nc(Nc3ccc(-c4ccnc(C)c4)cc3)ncc21 [Example 12]
pIC50 (Aβ42): 5.72
Ratio Aß(total)/Aß42 (Aβ total): 11

COCCN1C(=O)C2(CCOCC2)N(C)c2nc(Nc3ccc(-n4cnc(C)n4)c(OC)c3)ncc21 [Example 13]
pIC50 (Aβ42): 5.66
Ratio Aß(total)/Aß42 (Aβ total): >13

COCCN1C(=O)C2(CCOC2)N(C)c2nc(Nc3ccc(-c4ccnc(C)c4)cc3)ncc21 (stereo not shown) [Example 14]
pIC50 (Aβ42): 5.85
Ratio Aß(total)/Aß42 (Aβ total): > 27

COCCN1C(=O)C2(CCOC2)N(C)c2nc(Nc3ccc(-n4cnc(C)n4)c(OC)c3)ncc21 (stereo not shown) [Example 15]
pIC50 (Aβ42): 5.68
Ratio Aß(total)/Aß42 (Aβ total): >15

COCCN1C(=O)C2(CCOC2)N(C)c2nc(Nc3ccc(-n4cnc(C)c4)c(OC)c3)ncc21 (stereo not shown) [Example 16]
pIC50 (Aβ42): 6.74
Ratio Aß(total)/Aß42 (Aβ total): 88

CCCN1C(=O)C2(CCOCC2)N(C)c2nc(Nc3ccc(-n4cnc(C)c4)c(OC)c3)ncc21 [Example 17]
pIC50 (Aβ42): 7.03
Ratio Aß(total)/Aß42 (Aβ total): 65

Cc1cn(-c2ccc(Nc3ncc4c(n3)N(C)C3(CCOC3)C(=O)N4C)cc2C#N)cn1 (stereo not shown) [Example 18]
pIC50 (Aβ42): 6.52
Ratio Aß(total)/Aß42 (Aβ total): 145

Cc1cn(-c2ccc(Nc3ncc4c(n3)NC3(CCOC3)C(=O)N4C)cc2C#N)cn1 (stereo not shown) [Example 19]
pIC50 (Aβ42): 6.55
Ratio Aß(total)/Aß42 (Aβ total): > 257

COc1cc(Nc2ncc3c(n2)NC2(CCOC2)C(=O)N3C)ccc1-n1cnc(C)c1 (stereo not shown) [Example 20]
pIC50 (Aβ42): 6.10
Ratio Aß(total)/Aß42 (Aβ total): > 90

COc1cc(Nc2ncc3c(n2)N(C)C2(CCOC2)C(=O)N3C2COC2)ccc1-n1cnc(C)c1 (stereo not shown) [Example 21]
pIC50 (Aβ42): 6.66
Ratio Aß(total)/Aß42 (Aβ total): 114

COc1cc(Nc2ncc3c(n2)NC2(CCOC2)C(=O)N3CC2CCOCC2)ccc1-n1cnc(C)c1 (stereo not shown) [Example 22]
pIC50 (Aβ42): 5.48
Ratio Aß(total)/Aß42 (Aβ total): >9

COc1cc(Nc2ncc3c(n2)N(C)C2(CCOC2)C(=O)N3C(C)C)ccc1-n1cnc(C)c1 (stereo not shown) [Example 23]
pIC50 (Aβ42): 7.41
Ratio Aß(total)/Aß42 (Aβ total): 599

COc1cc(Nc2ncc3c(n2)N(CC2CCOCC2)C2(CCOC2)C(=O)N3CC2CCOCC2)ccc1-n1cnc(C)c1 (stereo not shown) [Example 24]
pIC50 (Aβ42): 5.52
Ratio Aß(total)/Aß42 (Aβ total): >10

COc1cc(Nc2ncc3c(n2)N(C)C2(COCCOC2)C(=O)N3)ccc1-n1cnc(C)c1 [Example 25]
pIC50 (Aβ42): 6.54
Ratio Aß(total)/Aß42 (Aβ total): 91

COc1cc(Nc2ncc3c(n2)N(C)C2(CCOC2)C(=O)N3CC2CCOCC2)ccc1-n1cnc(C)c1 (stereo not shown) [Example 26]
pIC50 (Aβ42): 6.46
Ratio Aß(total)/Aß42 (Aβ total): 46

COc1cc(Nc2ncc3c(n2)N(C)C2(COCCOC2)C(=O)N3C)ccc1-n1cnc(C)c1 [Example 27]
pIC50 (Aβ42): 6.57
Ratio Aß(total)/Aß42 (Aβ total): > 112

COc1cc(Nc2ncc3c(n2)NC2(CCOC2)C(=O)N3C2COC2)ccc1-n1cnc(C)c1 (stereo not shown) [Example 28]
pIC50 (Aβ42): 4.98
Ratio Aß(total)/Aß42 (Aβ total): >3

COc1cc(Nc2ncc3c(n2)NC2(CCOC2)C(=O)N3CCC(C)C)ccc1-n1cnc(C)c1 (stereo not shown) [Example 29]
pIC50 (Aβ42): 6.57
Ratio Aß(total)/Aß42 (Aβ total): 39

COCCN1c2nc(Nc3ccc(-n4cnc(C)c4)c(OC)c3)nc(CC(C)C)c2N(C)C(=O)C12CCOC2 (stereo not shown) [Example 30]
pIC50 (Aβ42): 7.00
Ratio Aß(total)/Aß42 (Aβ total): 96

COCCN1c2nc(Nc3ccc(-c4cnc(C)o4)c(OC)c3)nc(CC(C)C)c2N(C)C(=O)C12CCOC2 (stereo not shown) [Example 31]
pIC50 (Aβ42): 6.74
Ratio Aß(total)/Aß42 (Aβ total): 47

COc1cc(Nc2nc(CC(C)C)c3c(n2)N(C)C2(CCOC2)C(=O)N3C)ccc1-n1cnc(C)c1 (stereo not shown) [Example 32]
pIC50 (Aβ42): 7.10
Ratio Aß(total)/Aß42 (Aβ total): 124

COc1cc(Nc2nc(CC(C)C)c3c(n2)NC2(CCOC2)C(=O)N3)ccc1-n1cnc(C)c1 (stereo not shown) [Example 33]
pIC50 (Aβ42): 6.85
Ratio Aß(total)/Aß42 (Aβ total): 124

CCc1nc(Nc2ccc(-n3cnc(C)c3)c(OC)c2)nc2c1N(C)C(=O)C1(CCOC1)N2C (stereo not shown) [Example 34]
pIC50 (Aβ42): 7.14
Ratio Aß(total)/Aß42 (Aβ total): 115

CCc1nc(Nc2ccc(-n3cnc(C)c3)c(C#N)c2)nc2c1N(C)C(=O)C1(CCOC1)N2C (stereo not shown) [Example 35]
pIC50 (Aβ42): 7.12
Ratio Aß(total)/Aß42 (Aβ total): 180

COc1cc(Nc2ncc3c(n2)N(C)C2(CCc4ccccc4C2)C(=O)N3C)ccc1-n1cnc(C)c1 (stereo not shown) [Example 36]
pIC50 (Aβ42): 7.16
Ratio Aß(total)/Aß42 (Aβ total): 179

Cc1ncc(-c2ccc(Nc3ncc4c(n3)N(C)C3(CCc5ccccc5C3)C(=O)N4C)cn2)o1 (stereo not shown) [Example 37]
pIC50 (Aβ42): 6.03
Ratio Aß(total)/Aß42 (Aβ total): 29

COc1cc(Nc2ncc3c(n2)N(C)C2(CCOC2)C(=O)N3c2ccc(F)cc2)ccc1-n1cnc(C)c1 (stereo not shown) [Example 37a]
pIC50 (Aβ42): 7.22
Ratio Aß(total)/Aß42 (Aβ total): 307

COc1cc(Nc2ncc3c(n2)N(C)C2(CCOCC2)C(=O)N3C2CC2)ccc1-n1cnc(C)c1 [Example 37b]
pIC50 (Aβ42): 6.76
Ratio Aß(total)/Aß42 (Aβ total): 47

COc1cc(Nc2ncc3c(n2)N(C)C2(CCOCC2)C(=O)N3c2cc(F)cc(F)c2)ccc1-n1cnc(C)c1 [Example 37c]
pIC50 (Aβ42): 6.94
Ratio Aß(total)/Aß42 (Aβ total): 75

COc1cc(Nc2nc3c(c(C(F)(F)F)n2)N(C)C(=O)C2(CCOCC2)N3C)ccc1-n1cnc(C)c1 [Example 37d]
pIC50 (Aβ42): 6.09
Ratio Aß(total)/Aß42 (Aβ total): >36

COc1cc(Nc2ncc3c(n2)N(C)C2(CCOC2)C(=O)N3CC(F)(F)F)ccc1-n1cnc(C)c1 (stereo not shown) [Example 37e]
pIC50 (Aβ42): 7.07
Ratio Aß(total)/Aß42 (Aβ total): 82

COc1cc(Nc2ncc3c(n2)N(C)C2(CCOCC2)C(=O)N3c2ccc(F)cc2)ccc1-n1cnc(C)c1 [Example 37f]
pIC50 (Aβ42): 6.84
Ratio Aß(total)/Aß42 (Aβ total): 55

COc1cc(Nc2ncc3c(n2)N(C)C2(CCOC2)C(=O)N3C2CC2)ccc1-n1cnc(C)c1 (stereo not shown) [Example 37g]
pIC50 (Aβ42): 6.71
Ratio Aß(total)/Aß42 (Aβ total): 58

COc1cc(Nc2ncc3c(n2)N(C)C2(CCOC2)C(=O)N3CC(F)F)ccc1-n1cnc(C)c1 (stereo not shown) [Example 37h]
pIC50 (Aβ42): 6.91
Ratio Aß(total)/Aß42 (Aβ total): 85

CCc1nc(Nc2cnc(-n3cnc(C)c3)c(OC)c2)nc2c1N(C)C(=O)C1(CC1)N2C [Example 37i]
pIC50 (Aβ42): 6.82
Ratio Aß(total)/Aß42 (Aβ total): 54

COc1cc(Nc2ncc3c(n2)N(C)C2(CCOCC2)C(=O)N3Cc2ccc(F)cc2F)ccc1-n1cnc(C)c1 [Example 37j]
pIC50 (Aβ42): 7.14
Ratio Aß(total)/Aß42 (Aβ total): 57

COc1cc(Nc2ncc3c(n2)N(C)C2(CCOC2)C(=O)N3C(C)c2ccccn2)ccc1-n1cnc(C)c1 (stereo not shown) [Example 37k]
pIC50 (Aβ42): 6.92
Ratio Aß(total)/Aß42 (Aβ total): 88

COc1cc(Nc2ncc3c(n2)N(C2CCCC2)C2(CC2)C(=O)N3C)ccc1-n1cnc(C)c1 [Example 38]
pIC50 (Aβ42): 6.39
Ratio Aß(total)/Aß42 (Aβ total): >15

COc1cc(Nc2ncc3c(n2)N(C)C2(CCCCOC2)C(=O)N3C)ccc1-n1cnc(C)c1 (stereo not shown) [Example 39]
pIC50 (Aβ42): 7.11
Ratio Aß(total)/Aß42 (Aβ total): 91

COc1cc(Nc2nc3c(c(C(C)(C)O)n2)N(C)C(=O)C2(CCOC2)N3C)ccc1-c1cnc(C)o1 (stereo not shown) [Example 40]
pIC50 (Aβ42): 6.31
Ratio Aß(total)/Aß42 (Aβ total): > 62

COc1cc(Nc2ncc3c(n2)N(C)C2(COC2)C(=O)N3C)ccc1-n1cnc(C)c1 [Example 41]
pIC50 (Aβ42): 5.91
Ratio Aß(total)/Aß42 (Aβ total): > 25

COc1cc(Nc2ncc3c(n2)N(C)C2(CCCOCC2)C(=O)N3C)ccc1-n1cnc(C)c1 (stereo not shown) [Example 42]
pIC50 (Aβ42): 6.69
Ratio Aß(total)/Aß42 (Aβ total): 51

COc1cc(Nc2ncc3c(n2)N(C)C2(CCC2)C(=O)N3C)ccc1-n1cnc(C)c1 [Example 43]
pIC50 (Aβ42): 6.91
Ratio Aß(total)/Aß42 (Aβ total): 237

COc1cc(Nc2ncc3c(n2)N(C)C2(CC2)C(=O)N3CC(F)(F)F)ccc1-n1cnc(C)c1 [Example 44]
pIC50 (Aβ42): 7.07
Ratio Aß(total)/Aß42 (Aβ total): 50

COc1cc(Nc2ncc3c(n2)N(C)C2(CCC2)C(=O)N3CC(F)(F)F)ccc1-c1cnc(C)o1 [Example 45]
pIC50 (Aβ42): 7.24
Ratio Aß(total)/Aß42 (Aβ total): > 517
